One compound from patent US7104958B2, “Systems and methods for investigating intracranial pressure” (New Health Sciences, Inc., priority 2001, dated 2006) can be followed below.

The test relates to cerebral vessels. How it is done: These are the symptoms upon presentation in the neurological clinic. Transcranial Doppler analysis of all cerebral vessels is performed in addition to analyzing the common carotid artery and the internal carotid artery.
The physician considers prescription of Plavix together with a calcium channel blocker. Transcranial Doppler analysis was performed at monthly intervals. […] The physician subsequently administers a higher dose. Again, transcranial Doppler analysis is performed on all cerebral vessels.
The patient is then monitored on a monthly basis after the initial prescription of Plavix in order to determine whether vascular changes are occurring which necessitate alteration in the therapy.

[1] abbreviates: same patient, higher dose, transcranial Doppler on all cerebral vessels.

Turning to `COC(=O)[C@H](c1ccccc1Cl)N1CCc2sccc2C1` [Plavix], under “person after first stroke, Plavix +/- calcium channel blocker, initial dose, transcranial Doppler at monthly intervals”, the “changes in the individual cerebral vessels” value is listed as “no effect on the cerebral vessels”. Under setting [1], the auto-regulation curve result is reported as “left-shifts toward normal” and the pulsatility index entry was “decreases”.
